ChEMBL document CHEMBL1201862, “PubChem BioAssay data set” (2004)
Calls of active or inactive are those of the source.

What was measured:
[1] = tested on: HEK293; test: cells; type: functional, cell-based; conditions: Homo sapiens
[2] = tested on: MDCK; test: MDCK cell cytotoxicity, dose response, cytotoxicity control (AID 540296); type: functional; conditions: Canis lupus familiaris
[3] = tested on: HEK293; test: cells; type: functional, cell-based; conditions: Homo sapiens; remark: listed apart in the source
[4] = tested on: HEK293; test: inhibition of NOD1-driven NF-kB reporter – cell-based, luminescence, uHTS, primary screen (AID 1578); type: functional; conditions: Homo sapiens
[5] = Trypanosoma cruzi growth suppression in host cells – NIH3T3 host cells, beta-gal luminescence, confirmation (AID 2044); type: functional, cell-based;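 note: intracellular parasites grown in NIH/3T3 mouse fibroblasts as host cells; luminescent beta-galactosidase reporter signal from transgenic T. cruzi replicating inside host cells; inhibitors lower the luminescence signal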
[6] = NIH3T3 cell viability loss – ATP luminescence, mouse fibroblasts, counter-screen, dose response (AID 2010); type: functional, cell-based;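 note: cells exposed to compound for about 90 hours before reading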
[7] = biological target: G-protein coupled receptor 55 (Homo sapiens, UniProt Q9Y2T6); test: selective activators of receptor GPR55 – imaging, U2OS cells, beta-arrestin-GFP redistribution, primary screen (AID 1961); type: functional
[8] = biological target: T1, Rac GTPase-activating protein 1 (Homo sapiens, UniProt Q9H0H5); test: blockers of MgcRacGAP-driven Rac1 GTP hydrolysis – biochemical, ADP Hunter fluorescence, primary and confirmatory, confirmation (AID 624330); type: functional
T1 sequence (Q9H0H5 whole entry): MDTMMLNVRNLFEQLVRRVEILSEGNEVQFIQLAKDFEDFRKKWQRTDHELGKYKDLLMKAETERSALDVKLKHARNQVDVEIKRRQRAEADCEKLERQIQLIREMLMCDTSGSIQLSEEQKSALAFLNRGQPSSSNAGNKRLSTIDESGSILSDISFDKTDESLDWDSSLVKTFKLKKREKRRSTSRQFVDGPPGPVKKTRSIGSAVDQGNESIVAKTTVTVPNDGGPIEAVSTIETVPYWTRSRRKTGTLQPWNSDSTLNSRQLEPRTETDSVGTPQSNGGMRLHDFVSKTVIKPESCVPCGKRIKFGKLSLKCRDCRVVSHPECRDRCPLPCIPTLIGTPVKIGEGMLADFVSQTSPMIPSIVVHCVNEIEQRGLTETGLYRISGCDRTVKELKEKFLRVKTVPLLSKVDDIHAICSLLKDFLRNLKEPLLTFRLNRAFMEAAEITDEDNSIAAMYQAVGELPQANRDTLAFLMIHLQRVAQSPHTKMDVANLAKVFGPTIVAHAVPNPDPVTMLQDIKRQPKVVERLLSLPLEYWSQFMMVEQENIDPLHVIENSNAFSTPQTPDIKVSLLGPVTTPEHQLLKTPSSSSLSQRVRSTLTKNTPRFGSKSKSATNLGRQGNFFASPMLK

[9] = biological target: X-box-binding protein 1 (Homo sapiens, UniProt P17861); type: functional, Cricetulus griseus;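 note: confirmatory dose-response counter-screen serving a CHOP assay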
[10] = tested on: Vero; test: Vero E6 cell cytotoxicity, dose response, cytotoxicity control (AID 540298); type: functional; conditions: Chlorocebus sabaeus
[11] = biological target: T2, Sphingosine 1-phosphate receptor 4 (Homo sapiens, UniProt O95977); test: Fluorescence dose response cell-based high throughput screening assay for antagonists of the Sphingosine 1-Phosphate Receptor 4 (S1P4). [Related pubchem assays: 1524 (Confirmation in triplicates.), 1510 (Primary screen.)]; type: functional
T2 sequence (O95977 whole entry): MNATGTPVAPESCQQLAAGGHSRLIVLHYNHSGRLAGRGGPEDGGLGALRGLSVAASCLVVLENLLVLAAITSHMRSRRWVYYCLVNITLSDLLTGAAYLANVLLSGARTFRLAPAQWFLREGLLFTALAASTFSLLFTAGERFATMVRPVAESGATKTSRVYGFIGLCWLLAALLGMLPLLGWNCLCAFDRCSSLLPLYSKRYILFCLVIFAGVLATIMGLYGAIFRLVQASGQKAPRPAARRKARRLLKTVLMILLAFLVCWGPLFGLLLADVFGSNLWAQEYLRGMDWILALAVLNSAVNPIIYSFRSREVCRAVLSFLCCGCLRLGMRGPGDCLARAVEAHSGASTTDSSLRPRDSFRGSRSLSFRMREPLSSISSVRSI

[12] = tested on: MDCK; test: antiviral activity against H1N1 influenza, dose response, cell-based, strain KY136 (AID 540257); type: functional; conditions: Canis lupus familiaris
[13] = biological target: Neurotensin receptor type 1 (Homo sapiens, UniProt P30989); type: functional;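 note: Image-based confirmatory dose-response assay measuring agonist activity at NTR1; NTR1-expressing U2OS osteosarcoma cells imaged for beta-arrestin GFP spot formation; agonist potency where compounds increase beta-arrestin recruitment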
[14] = biological target: Sphingosine 1-phosphate receptor 1 (Homo sapiens, UniProt P21453); type: functional;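 note: Tango beta-arrestin reporter U2OS cells stimulated with S1P near its EC80; inhibitor potency meaning antagonism of receptor activation by the natural agonist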
[15] = tested on: HeLa; test: Cytotoxicity counterscreen assay for transcriptional activators of heat shock protein 70 (Hsp70). [Related pubchem assays: 1203, 1252 ]; type: functional; conditions: Homo sapiens;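 note: cells exposed to compound for 16 hours before readout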
[16] = tested on: HEK293; test: NOD2 signaling inhibitors in MDP-stimulated cells, cell-based, uHTS, luminescence (AID 2001); type: functional; conditions: Homo sapiens
[17] = viability loss in HeLa cells – cytotoxicity control for MgcRacGAP inhibitor project, dose response (AID 624300); type: functional
[18] = biological target: Nonstructural protein 1 (Influenza A virus, UniProt Q194T2); type: functional, Influenza A virus (A/California/07/2009(H1N1))
[19] = tested on: BJ; test: BJ-TERT-LT-ST fibroblast viability loss – cell-based, RAS-independent, luminescence, dose response (AID 1935); type: functional; conditions: Homo sapiens;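 note: BJ fibroblasts immortalized with TERT plus LT and ST oncogenes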
[20] = HEK-293T viability loss after treatment – luminescence, T-cell screen hits, cytotoxicity control for TCR NF-kB inhibitor project, dose response (AID 489026); type: functional, cell-based;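 note: cells exposed to compound about 14 hours before the viability readout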
[21] = alpha-synuclein stem-loop luciferase translation blockers – H4 neuroglioma cells, luminescence, confirmation (AID 1988); type: functional, cell-based
[22] = cells; type: functional, cell-based
[23] = luciferase reporter signal reduction – luminescence, H4-C neuroglioblastoma cells, dose response (AID 2458); type: functional, cell-based;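 note: H4 neuroglioblastoma cells stably carrying a luciferase reporter gene fusion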
[24] = DRD fibroblast viability loss – cell-based, non-viral oncogenic, luminescence, dose response (AID 1934); type: functional; conditions: Homo sapiens
[25] = biological target: Disintegrin and metalloproteinase domain-containing protein 17 (Homo sapiens, UniProt P78536); test: exosite inhibitors of ADAM17, dose response, biochemical (AID 743260)
[26] = tested on: BJ; test: cells; type: functional, cell-based; conditions: Homo sapiens
[27] = Luminescence Cell-Based Dose Response HTS to Identify Inhibitors of 5'UTR Stem-Loop Driven Prion Protein mRNA Translation in H4 Neuroglioblastoma Cells. [Related pubchem assays: 1827 (Project Summary), 1813 (Primary HTS)]; type: functional
[28] = tested on: BJ; test: BJ-TERT fibroblast viability loss – cell-based, RAS-independent, luminescence, dose response (AID 1933); type: functional; conditions: Homo sapiens
[29] = alpha-synuclein stem-loop translation blockers – luminescence, H4 neuroglioblastoma cells, dose confirmation, confirmation (AID 2454); type: functional, cell-based;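 note: H4 neuroglioblastoma cells carrying an alpha-synuclein 5'UTR luciferase reporter; potency for inhibition of the luciferase signal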
[30] = inhibition of ADAM10 peptide cleavage – biochemical, FRET peptide substrate, recombinant human ADAM10, selectivity assay for ADAM17 exosite inhibitor project, dose response (AID 743259);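 note: ADAM10 enzyme cleaving a FRET peptide substrate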
[31] = biological target: Acyl-homoserine lactone acylase PvdQ (Pseudomonas aeruginosa (strain LESB58), UniProt Q9I194); test: PvdQ acylase enzyme activity blockers – biochemical, fluorescence, plate reader and imaging, cherry-picks, dose response (AID 493231)
[32] = biological target: Scavenger receptor class B member 1 (Mus musculus, UniProt Q61009); test: mouse SR-BI DiI-HDL uptake blockers – ldlA[mSR-BI] cells, fluorescence, cherry pick, dose response (AID 493194); type: functional, cell-based;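 note: cellular uptake of fluorescent DiI-labeled HDL measured as cell fluorescence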
[33] = biological target: T3, Eukaryotic translation initiation factor 2-alpha kinase 3 (Homo sapiens, UniProt Q9NZJ5); test: Counterscreen assay for PERK inhibitors: Dose response cell-based high throughput screening assay to measure inhibition of PERK at 6 hours. [Related pubchem assays: 1522, 1416 ]; type: functional
[34] = biological target: T3, Eukaryotic translation initiation factor 2-alpha kinase 3; test: Dose response cell-based high-throughput screening assay to measure PERK inhibition. [Related pubchem assays: 1416 ]; type: functional
[35] = biological target: Dual specificity protein phosphatase 3 (Homo sapiens, UniProt P51452); test: inhibition constants for human DUSP3 – biochemical, colorimetric, SAR follow-up (AID 2004)

COC(=O)c1ccc2c(c1)C(C)(C)C(/C=C/c1ccccc1O)=[N+]2C.[I-]
inactive: IC50 [3] > 20 µM | IC50 [16] 11.7 µM
active: IC50 [1] 5.74 µM | CC50 [2] 5.8 µM | EC50 [4] 7.83 µM | EC50 [5] 0.584 µM | EC50 [6] 4.69 µM | EC50 [7] 2.75 µM | IC50 [8] 21 µM | CC50 [10] 4.79 µM | IC50 [11] 0.798 µM | IC50 [12] 8.58 µM | EC50 [13] 18.3 µM | IC50 [14] 4.76 µM | CC50 [15] 8.49 µM | CC50 [17] 30.9 µM | IC50 [18] 22.7 µM
10 µM: Absolute IC50 (XBP1) [9]

Cc1cc(C)c(S(=O)(=O)Nc2ccc3c4c(cccc24)CC3)c(C)c1
active: EC50 [21] < 0.1 µM | EC50 [22] 2.97 µM | EC50 [23] 1.06 µM | EC50 [27] 9.52 µM | EC50 [28] 0.288 µM | EC50 [29] 1.2 µM
inconclusive: EC50 [19] 0.246 µM | EC50 [24] 0.383 µM | EC50 [26] 2.1 µM
inactive: IC50 [20] > 80 µM | IC50 [25] > 69.5 µM | IC50 [30] > 69.5 µM

N#CC(c1cccc(Cl)c1)c1ncc(C(F)(F)F)cc1Cl (stereo not given)
active: AC50 [31] 2.74 µM

COc1cc(NC(=O)c2cc(-c3ccccc3Cl)on2)cc(OC)c1OC
active: AC50 [32] 32 µM

CCS(=O)(=O)N1CCC(C(=O)NCc2ccc(F)cc2)CC1
> 55.7 µM (not active): EC50 [33] | EC50 [34]

O=C1NC(=S)N(c2ccc(Cl)cc2)C(=O)/C1=C/c1ccc(-c2ccccc2C(=O)O)o1
inactive: Ki [35] 36.6 µM
